From article PMC4558462, “A new small molecule inhibitor of soluble guanylate cyclase” (Bioorganic & Medicinal Chemistry, 2015)

target: T1, sGC (Homo sapiens, UniProt Q02108+Q02153); assay: Earlier laboratory observation of effect on sGC (data not shown); type: biochemical; settings: low millimolar concentrations
T1 sequence (Q02108 1-690): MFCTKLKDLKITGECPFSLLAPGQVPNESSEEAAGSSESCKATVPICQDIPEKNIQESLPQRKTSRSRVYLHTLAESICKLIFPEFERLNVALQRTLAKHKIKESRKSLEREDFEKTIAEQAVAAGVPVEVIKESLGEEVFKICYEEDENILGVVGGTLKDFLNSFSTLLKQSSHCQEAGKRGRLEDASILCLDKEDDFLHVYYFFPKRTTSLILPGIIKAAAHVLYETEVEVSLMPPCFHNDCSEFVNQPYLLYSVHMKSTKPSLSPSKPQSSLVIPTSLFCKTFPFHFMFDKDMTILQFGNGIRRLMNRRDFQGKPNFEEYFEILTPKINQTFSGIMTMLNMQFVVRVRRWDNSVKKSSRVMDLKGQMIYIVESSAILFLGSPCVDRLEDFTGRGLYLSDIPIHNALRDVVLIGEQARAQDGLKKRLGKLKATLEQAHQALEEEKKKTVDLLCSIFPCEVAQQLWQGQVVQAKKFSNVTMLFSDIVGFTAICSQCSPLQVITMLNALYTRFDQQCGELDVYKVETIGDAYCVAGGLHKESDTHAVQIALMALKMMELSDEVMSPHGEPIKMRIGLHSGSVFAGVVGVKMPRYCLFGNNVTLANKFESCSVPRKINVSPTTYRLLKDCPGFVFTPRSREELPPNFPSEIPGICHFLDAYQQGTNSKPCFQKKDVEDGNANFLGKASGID
T1 sequence (Q02153 1-619): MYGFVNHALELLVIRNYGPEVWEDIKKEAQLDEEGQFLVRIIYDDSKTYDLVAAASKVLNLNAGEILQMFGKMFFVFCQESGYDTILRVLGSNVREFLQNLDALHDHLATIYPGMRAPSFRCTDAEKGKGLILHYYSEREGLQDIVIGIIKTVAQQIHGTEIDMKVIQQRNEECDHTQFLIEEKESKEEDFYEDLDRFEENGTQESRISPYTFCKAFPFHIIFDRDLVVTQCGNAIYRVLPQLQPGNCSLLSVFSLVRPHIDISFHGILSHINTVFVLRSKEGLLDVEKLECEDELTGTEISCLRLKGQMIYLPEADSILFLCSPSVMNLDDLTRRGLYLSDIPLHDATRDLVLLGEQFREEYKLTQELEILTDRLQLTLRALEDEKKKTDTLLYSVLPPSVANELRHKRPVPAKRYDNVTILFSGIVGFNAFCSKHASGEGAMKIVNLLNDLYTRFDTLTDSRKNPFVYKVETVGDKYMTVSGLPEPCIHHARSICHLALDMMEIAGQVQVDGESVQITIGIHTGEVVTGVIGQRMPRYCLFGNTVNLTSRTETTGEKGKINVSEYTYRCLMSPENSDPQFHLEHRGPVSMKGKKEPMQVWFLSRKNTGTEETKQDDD
Method: In the course of studies in our laboratory we observed activation of sGC with the anti-epileptic drug lamotrigine 2 and inhibition with lamotrigine analogues sipatrigine 3 and 4, all at low millimolar concentrations (data not shown) (Fig. 1). These compounds were used as the starting point for a screening study to find new inhibitors of sGC. The strategy was to conduct several rounds of similarity searching and screening to identify the best inhibitors. Some synthetic studies were conducted on the best hit to explore the structure–activity relationships.

effect on sGC | Structure (SMILES)
inhibition | CN1CCN(c2ncc(-c3cc(Cl)cc(Cl)c3Cl)c(N)n2)CC1 [Compound 3, sipatrigine]
inhibition | Nc1nc(N)c(-c2cc(Cl)cc(Cl)c2Cl)c(C(F)(F)F)n1 [Compound 4]
activation | Nc1nnc(-c2cccc(Cl)c2Cl)c(N)n1 [Compound 2, lamotrigine]
